Laboratory results as given in PubChem BioAssay (NCI).
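GI50 marks 50% less growth. Definition used: TGI = concentration required for complete inhibition of growth.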

Tests used:
Experiment in all cases: growth of human tumour cells (NCI), 384-well format
BT-549 breast = test system: BT-549 breast
KM12 colon = test system: KM12 colon
SF-268 CNS = test system: SF-268 CNS
NCI-H226 lung = test system: NCI-H226 lung
MOLT-4 leukemia = test system: MOLT-4 leukemia
MCF7 breast = test system: MCF7 breast
OVCAR-8 ovarian = test system: OVCAR-8 ovarian
SR leukemia = test system: SR leukemia
MDA-MB-435 melanoma = test system: MDA-MB-435 melanoma
SNB-19 CNS = test system: SNB-19 CNS
EKVX NSCLC = test system: EKVX NSCLC
SW-620 colon = test system: SW-620 colon
A549 NSCLC = test system: A549 NSCLC
SK-OV-3 ovarian = test system: SK-OV-3 ovarian
A498 renal = test system: A498 renal
NCI-H522 lung = test system: NCI-H522 lung
K-562 leukemia = test system: K-562 leukemia
HOP-92 NSCLC = test system: HOP-92 NSCLC
HCT-15 colon = test system: HCT-15 colon
TK-10 renal = test system: TK-10 renal
CAKI-1 renal = test system: CAKI-1 renal
DU-145 prostate = test system: DU-145 prostate
SF-295 CNS = test system: SF-295 CNS
RXF 393 renal = test system: RXF 393 renal
IGROV1 ovarian = test system: IGROV1 ovarian
UACC-62 melanoma = test system: UACC-62 melanoma
UACC-257 melanoma = test system: UACC-257 melanoma
PC-3 prostate = test system: PC-3 prostate
HOP-62 NSCLC = test system: HOP-62 NSCLC
OVCAR-4 ovarian = test system: OVCAR-4 ovarian
MDA-MB-468 breast = test system: MDA-MB-468 breast
M14 melanoma = test system: M14 melanoma
SK-MEL-5 melanoma = test system: SK-MEL-5 melanoma
UO-31 renal = test system: UO-31 renal
OVCAR-5 ovarian = test system: OVCAR-5 ovarian
MALME-3M melanoma = test system: MALME-3M melanoma
LOX IMVI melanoma = test system: LOX IMVI melanoma
SK-MEL-28 melanoma = test system: SK-MEL-28 melanoma
SF-539 CNS = test system: SF-539 CNS
COLO 205 colon = test system: COLO 205 colon
SK-MEL-2 melanoma = test system: SK-MEL-2 melanoma
NCI/ADR-RES ovarian = test system: NCI/ADR-RES ovarian
HT29 colon = test system: HT29 colon
RPMI-8226 leukemia = test system: RPMI-8226 leukemia
HCC-2998 colon = test system: HCC-2998 colon
HS 578T breast = test system: HS 578T breast
HCT-116 colon = test system: HCT-116 colon
SNB-75 CNS = test system: SNB-75 CNS
ACHN renal = test system: ACHN renal
NCI-H23 lung = test system: NCI-H23 lung
HL-60(TB) leukemia = test system: HL-60(TB) leukemia
NCI-H322M lung = test system: NCI-H322M lung
T-47D breast = test system: T-47D breast
OVCAR-3 ovarian = test system: OVCAR-3 ovarian
CCRF-CEM leukemia = test system: CCRF-CEM leukemia
786-0 renal = test system: 786-0 renal
NCI-H460 NSCLC = test system: NCI-H460 NSCLC
SN12C renal = test system: SN12C renal
MDA-MB-231 breast = test system: MDA-MB-231 breast
U251 glioblastoma = test system: U251 glioblastoma

CC(=O)Nc1cccc(-n2c(=O)n(C3CC3)c(=O)c3c(Nc4ccc(I)cc4F)n(C)c(=O)c(C)c32)c1
GI50 (BT-549 breast): 0.846 µM | TGI (BT-549 breast): 18.3 µM | GI50 (KM12 colon): < 0.01 µM | TGI (KM12 colon): 26.1 µM | GI50 (SF-268 CNS): 7.21 µM | TGI (SF-268 CNS): > 56.4 µM | GI50 (NCI-H226 lung): < 0.0432 µM | TGI (NCI-H226 lung): 8.93 µM | GI50 (MOLT-4 leukemia): 3.11 µM | TGI (MOLT-4 leukemia): 12.3 µM | GI50 (MCF7 breast): 7.68 µM | TGI (MCF7 breast): 23.6 µM | GI50 (OVCAR-8 ovarian): 2.88 µM | TGI (OVCAR-8 ovarian): 36.1 µM | GI50 (SR leukemia): 1.1 µM | TGI (SR leukemia): 5.65 µM | GI50 (MDA-MB-435 melanoma): < 0.01 µM | TGI (MDA-MB-435 melanoma): 16.5 µM | TGI (SNB-19 CNS): > 62.1 µM | GI50 (EKVX NSCLC): 0.309 µM | TGI (EKVX NSCLC): 23.7 µM | GI50 (SW-620 colon): < 0.01 µM | TGI (SW-620 colon): > 36 µM | GI50 (A549 NSCLC): 0.0103 µM | TGI (A549 NSCLC): 4.68 µM | TGI (SK-OV-3 ovarian): > 41.1 µM | GI50 (A498 renal): 0.08 µM | TGI (A498 renal): 4.52 µM | GI50 (NCI-H522 lung): 4.33 µM | TGI (NCI-H522 lung): 37.4 µM | GI50 (K-562 leukemia): 0.0265 µM | TGI (K-562 leukemia): 11.8 µM | GI50 (HOP-92 NSCLC): < 0.0172 µM | TGI (HOP-92 NSCLC): 0.123 µM | GI50 (HCT-15 colon): 0.238 µM | TGI (HCT-15 colon): 14.7 µM | TGI (TK-10 renal): > 45.6 µM | GI50 (CAKI-1 renal): < 0.026 µM | TGI (CAKI-1 renal): 12 µM | GI50 (DU-145 prostate): 1.96 µM | TGI (DU-145 prostate): 44.4 µM | GI50 (SF-295 CNS): 23.1 µM | TGI (SF-295 CNS): > 86.2 µM | TGI (RXF 393 renal): 1.44 µM | GI50 (IGROV1 ovarian): < 0.01 µM | TGI (IGROV1 ovarian): 5.48 µM | GI50 (UACC-62 melanoma): < 0.01 µM | GI50 (UACC-257 melanoma): < 0.01 µM | TGI (UACC-257 melanoma): < 0.01 µM | GI50 (PC-3 prostate): > 35.7 µM | TGI (PC-3 prostate): > 59.5 µM | GI50 (HOP-62 NSCLC): < 0.0113 µM | TGI (HOP-62 NSCLC): 21.2 µM | GI50 (OVCAR-4 ovarian): 4.87 µM | TGI (OVCAR-4 ovarian): 26.9 µM | GI50 (MDA-MB-468 breast): 5.03 µM | TGI (MDA-MB-468 breast): 14.2 µM | GI50 (M14 melanoma): < 0.01 µM | TGI (M14 melanoma): < 0.01 µM | GI50 (SK-MEL-5 melanoma): < 0.01 µM | TGI (SK-MEL-5 melanoma): < 0.01 µM | GI50 (UO-31 renal): 0.0541 µM | TGI (UO-31 renal): 11.3 µM | GI50 (OVCAR-5 ovarian): < 0.01 µM | TGI (OVCAR-5 ovarian): 25.5 µM | GI50 (MALME-3M melanoma): < 0.01 µM | TGI (MALME-3M melanoma): < 0.01 µM | GI50 (LOX IMVI melanoma): < 0.01 µM | TGI (LOX IMVI melanoma): 0.0443 µM | GI50 (SK-MEL-28 melanoma): < 0.01 µM | TGI (SK-MEL-28 melanoma): < 0.01 µM | GI50 (SF-539 CNS): 0.0819 µM | TGI (SF-539 CNS): 11 µM | GI50 (COLO 205 colon): < 0.01 µM | TGI (COLO 205 colon): < 0.0106 µM | GI50 (SK-MEL-2 melanoma): < 0.01 µM | TGI (SK-MEL-2 melanoma): < 0.01 µM | GI50 (NCI/ADR-RES ovarian): 1.32 µM | TGI (NCI/ADR-RES ovarian): 8.35 µM | GI50 (HT29 colon): < 0.01 µM | TGI (HT29 colon): 15 µM | GI50 (RPMI-8226 leukemia): 0.423 µM | TGI (RPMI-8226 leukemia): 4.84 µM | GI50 (HCC-2998 colon): < 0.01 µM | TGI (HCC-2998 colon): < 0.0119 µM | GI50 (HS 578T breast): 1.5 µM | TGI (HS 578T breast): 24.9 µM | GI50 (HCT-116 colon): < 0.01 µM | TGI (HCT-116 colon): 0.0787 µM | GI50 (SNB-75 CNS): 0.115 µM | TGI (SNB-75 CNS): 5.76 µM | GI50 (ACHN renal): 0.576 µM | TGI (ACHN renal): 20.4 µM | GI50 (NCI-H23 lung): < 0.01 µM | TGI (NCI-H23 lung): 0.137 µM | GI50 (HL-60(TB) leukemia): < 0.01 µM | TGI (HL-60(TB) leukemia): < 0.01 µM | GI50 (NCI-H322M lung): < 0.0237 µM | TGI (NCI-H322M lung): 3.6 µM | GI50 (T-47D breast): > 25.1 µM | TGI (T-47D breast): > 100 µM | GI50 (OVCAR-3 ovarian): 4.65 µM | TGI (OVCAR-3 ovarian): 21.4 µM | GI50 (CCRF-CEM leukemia): 3.32 µM | TGI (CCRF-CEM leukemia): 12.8 µM | GI50 ([…]-0 renal): 1.2 µM | TGI (786-0 renal): 20.1 µM | GI50 (NCI-H460 NSCLC): 3.88 µM | TGI (NCI-H460 NSCLC): > 40.9 µM | GI50 (SN12C renal): 0.537 µM | TGI (SN12C renal): 46.4 µM | GI50 (MDA-MB-231 breast): < 0.0489 µM | TGI (MDA-MB-231 breast): 1.99 µM | GI50 (U251 glioblastoma): 0.076 µM | TGI (U251 glioblastoma): 23.2 µM
